Experimental data as given in patent US8198269B2, “Fused aminodihydrothiazine derivative” (Eisai R&D Management Co., Ltd., priority 2008, dated 2012).

System: Aβ42 production
Assay: Quantification of Aβ peptide in culture of neurons from rat fetus brain (Aβ ELISA)
Type: cell-based
Settings: Neuron, 72 h; rat primary neuronal culture (embryonic day 18 Wistar rat cerebral cortex); cultured three days after addition of compound; Aβ42 concentration in the medium by ELISA; read-out: Aβ42 production reducing effect IC50
Protocol: Quantification of Aβ Peptide in Culture of Neurons from Rat Fetus Brain
(1) Rat Primary Neuronal Culture
Primary neuronal cultures were prepared from the cerebral cortex of embryonic day 18 Wistar rats (Charles River Japan, Yokohama, Japan). Specifically, the embryos were aseptically removed from pregnant rats under ether anesthesia. The brain was isolated from the embryo and immersed in an ice-cold L-15 medium (such as Invitrogen Corp. Cat #11415-064, Carlsbad, Calif., USA, or SIGMA L1518). The cerebral cortex was collected from the isolated brain under a stereoscopic microscope. The cerebral cortex fragments collected were enzymatically treated in an enzyme solution containing 0.25% trypsin (Invitrogen Corp. Cat #15050-065, Carlsbad, Calif., USA) and 0.01% DNase (Sigma D5025, St. Louis, Mo., USA) at 37° C. for 30 minutes to disperse the cells. Here, the enzymatic reaction was stopped by adding inactivated horse serum to the solution. The enzymatically treated solution was centrifuged at 1,500 rpm for five minutes to remove the supernatant. 5 to 10 ml of a medium was added to the resulting cell mass. […]

NC1=N[C@@]2(c3cc(NC(=O)c4cnc(OCF)cn4)ccc3F)COC[C@@H](F)[C@H]2CS1 [Example 21, N-[3-((4aS,5S,8aS)-2-amino-5-fluoro-4,4a,5,6,8,8a-hexahydro-7-oxa-3-thia-1-azanaphthalen-8a-yl)-4-fluorophenyl]-5-fluoromethoxypyrazine-2-carboxamide]
IC50: 10 nM
